Measured values: patent publication US20120129875A1, “SUBSTITUTED QUINAZOLINES AS FUNGICIDES” (SYNGENTA CROP PROTECTION, LLC, priority 2009, published 2012)

How the values were obtained:
Type in all cases: in vivo
[1] = system: Botryotinia fuckeliana (Botrytis cinerea); assay: Botryotinia fuckeliana (Botrytis cinerea) / tomato / preventative (Botrytis on tomato); details: tomato plants cv. Roter Gnom, inoculated two days after application, vs untreated control, read-out: disease control
Procedure: (§1) Botryotinia fuckeliana (Botrytis cinerea)/Tomato/Preventative (Botrytis on Tomato) 4-week old tomato plants cv. Roter Gnom are treated with the formulated test compound in a spray chamber. The test plants are inoculated by spraying them with a spore suspension two days after application. The inoculated test plants are incubated at 20° C. and 95% rh in a greenhouse and the percentage leaf area covered by disease is assessed when an appropriate level of disease appears on untreated check plants (5-6 days after application).

[2] = system: Pyrenophora teres (Helminthosporium teres); assay: Pyrenophora teres (Helminthosporium teres) / barley / preventative (net blotch on barley); details: barley plants cv. Regina, inoculated 2 days after application, vs untreated control, read-out: disease control
Procedure: Pyrenophora teres (Helminthosporium teres)/Barley/Preventative (Net Blotch on Barley) 1-week old barley plants cv. Regina are treated with the formulated test compound in a spray chamber. The test plants are inoculated by spraying them with a spore suspension 2 days after application. The inoculated test plants are incubated at 20° C. and 95% rh and the percentage leaf area covered by disease is assessed when an appropriate level of disease appears on untreated check plants (5-7 days after application).

Phytophthora infestans = assay: whole plant or invertebrate; details: in Solanum tuberosum, read-out: disease control
Plasmopara viticola = Plasmopara viticola / grape / preventative (grape downy mildew); details: grape seedlings cv. Gutedel, inoculated one day after application, vs untreated control, read-out: disease control
Procedure: Plasmopara viticola/Grape/Preventative (Grape Downy Mildew)
5-week old grape seedlings cv. Gutedel are treated with the formulated test compound in a spray chamber. The test plants are inoculated by spraying a sporangia suspension on their lower leaf surface one day after application. The inoculated test plants are incubated at 22° C. and 100% rh in a greenhouse and the percentage leaf area covered by disease is assessed when an appropriate level of disease appears on untreated check plants (6-8 days after application).

[3] = system: Erysiphe necator (Uncinula necator); assay: Erysiphe necator (Uncinula necator) / grape / preventative (powdery mildew on grape); details: grape seedlings cv. Gutedel, inoculated 1 day after application, vs untreated control, read-out: disease control
Procedure: Erysiphe necator (Uncinula necator)/Grape/Preventative (Powdery Mildew on Grape) 5-week old grape seedlings cv. Gutedel are treated with the formulated test compound in a spray chamber. The test plants are inoculated by shaking plants infected with grape powdery mildew above them 1 day after application. The inoculated test plants are incubated at 24/22° C. (day/night) and 70% rh under a light regime of 14/10 h (light/dark) and the percentage leaf area covered by disease is assessed when an appropriate level of disease appears on untreated check plants (7-9 days after application).

[4] = system: Mycosphaerella arachidis (Cercospora arachidicola); assay: Mycosphaerella arachidis (Cercospora arachidicola) / peanut / preventative; details: peanut plants cv. Georgia Green, inoculated one day after application, vs untreated control, read-out: disease control
Procedure: Mycosphaerella arachidis (Cercospora arachidicola)/Peanut/Preventative 3-week old peanut plants cv. Georgia Green are treated with the formulated test compound in a spray chamber. The test plants are inoculated by spraying them with a spore suspension on their lower leaf surface one day after application. After an incubation period of 4 days under a plastic hood at 23° C. and 100% rh, the test plants are kept at 23° C./20° C. (day/night) and 70% rh in a greenhouse. The percentage leaf area covered by disease is assessed when an appropriate level of disease appears on untreated check plants (12-14 days after application).

Alternaria solani = Alternaria solani / tomato / preventative (Alternaria on tomato); details: tomato plants cv. Roter Gnom, inoculated two days after application, vs untreated control, read-out: disease control
Procedure: as §1, with “Alternaria solani/Tomato/Preventative (Alternaria” for “Botryotinia fuckeliana (Botrytis cinerea)/Tomato/Preventative (Botrytis”, “22/18°” for “20°”, “C. (day/night)” for “C.”, “(5-7” for “(5-6”

[5] = system: Phaeosphaeria nodorum (Septoria nodorum); assay: Phaeosphaeria nodorum (Septoria nodorum) / wheat / leaf disc preventative (glume blotch); details: Parastagonospora nodorum, foliar, wheat leaf segments cv. Kanzler on agar, inoculated 2 days after application, vs untreated control, read-out: disease control
Summary of the method: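 Wheat cv. Kanzler leaf segments on agar sprayed with formulated compound in water, inoculated with spore suspension 2 days later. Incubated at 20° C., 75% rh, 12 h light/12 h dark; percent disease control versus untreated scored when untreated discs show damage (5-7 days after application).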

[6] = system: Mycosphaerella graminicola (Septoria tritici); assay: Mycosphaerella graminicola (Septoria tritici) / wheat / preventative (Septoria tritici leaf spot on wheat); details: Zymoseptoria tritici, wheat plants cv. Riband, inoculated one day after application, vs untreated control, read-out: disease control
Procedure: Mycosphaerella graminicola (Septoria tritici)/Wheat/Preventative (Septoria tritici Leaf Spot on Wheat) 2-week old wheat plants cv. Riband are treated with the formulated test compound in a spray chamber. The test plants are inoculated by spraying a spore suspension on them one day after application. After an incubation period of 1 day at 22° C./21° C. (day/night) and 95% rh, the test plants are kept at 22° C./21° C. (day/night) and 70% rh in a greenhouse. The percentage leaf area covered by disease is assessed when an appropriate level of disease appears on untreated check plants (16-19 days after application).

Measured: pest or weed control at 200 ppm

Cc1cc(F)ccc1-c1cccc(-c2ncc3ccccc3n2)n1 [2/55]
not listed: [5] | [6]
≥ 80%: all other assays above

COc1cccc(-c2cccc(-c3ncc4ccccc4n3)n2)c1F [2/60]
≥ 80%: [5] | [1] | Phytophthora infestans | Plasmopara viticola | Alternaria solani

Cc1ccc(-c2ncc3ccccc3n2)nc1-c1ccccc1 [3/71]
not listed: [3] | [4] | [5]
≥ 80%: all other assays above

Cc1ccc(-c2ncc3ccccc3n2)nc1-c1ccc(F)cc1 [3/72]
≥ 80%: [1] | [2] | Phytophthora infestans | Plasmopara viticola | Alternaria solani

Cc1cccc(-c2nc(-c3ncc4ccccc4n3)ccc2C)c1 [3/75]
not listed: [2] | [5]
≥ 80%: all other assays above

Cc1ccccc1-c1nc(-c2ncc3ccccc3n2)ccc1C [3/76]
not listed: [3] | [5]
≥ 80%: all other assays above

Cc1ccc(-c2ncc3ccccc3n2)nc1-c1cccc(F)c1 [3/77]
≥ 80%: [6] | Phytophthora infestans | Plasmopara viticola | Alternaria solani

Cc1cc(-c2nc(-c3ncc4ccccc4n3)ccc2C)ccc1F [3/85]
not listed: [5]
≥ 80%: all other assays above

Cc1ccc(-c2ncc3ccccc3n2)nc1-c1ccc(F)c(F)c1 [3/89]
not listed: Phytophthora infestans | [5]
≥ 80%: all other assays above

Cc1ccc(-c2ncc3ccccc3n2)nc1-c1cc(F)cc(F)c1 [3/90]
not listed: [5]
≥ 80%: all other assays above

COc1ccc(-c2nc(-c3ncc4ccccc4n3)ccc2C)cc1F [3/92, 2-[6-(3-fluoro-4-methoxy-phenyl)-5-methylpyridin-2-yl]-quinazoline]
not listed: [5]
≥ 80%: all other assays above

Cc1ccc(-c2ncc3ccccc3n2)nc1Oc1ccccc1 [5/18]
≥ 80%: [1] | [2] | Phytophthora infestans | Plasmopara viticola | Alternaria solani

Cc1cccc(Cc2cccc(-c3ncc4ccccc4n3)n2)c1F [6/12]
not listed: Phytophthora infestans | Plasmopara viticola | [5]
≥ 80%: all other assays above

c1ccc(Cc2cccc(-c3ncc4ccccc4n3)n2)cc1 [6/17, 2-(6-benzylpyridin-2-yl)-quinazoline]
not listed: [5] | [6]
≥ 80%: all other assays above

Cc1ccc(-c2ncc3ccccc3n2)nc1Cc1ccccc1 [7/17]
≥ 80%: [6] | Phytophthora infestans | [4] | Alternaria solani
